In paper PMC3066212, “Functional Divergence among Silkworm Antimicrobial Peptide Paralogs by the Activities of Recombinant Proteins and the Induced Expression Profiles” (PLoS ONE, 2011):

How the values were obtained:
[1] = system: ten tested bacteria (five Gram-positive, five Gram-negative); test: Ultrasensitive radial diffusion, antimicrobial spectrum; assay type: cell-based; conditions: 5 µmol/L, 10 µL in 2.7 mm pore on LB-medium plates, 37°C 24 h, n = 3 (Fig. 3)
S. aureus = test: Ultrasensitive radial diffusion; assay type: cell-based, Staphylococcus aureus; conditions: 5 µmol/L, 10 µL, 37°C 24 h (Fig. 3)
Experimental: Figure 3 The antimicrobial spectrum of paralogs among each AMP gene family. The following microbes were used to test antimicrobial activities: Gram-positive bacteria: S. aureus (Sa), B. bombysepticus (Bb), B. subtilis (Bs), B. thuringiensis (Bt), B. thuringiensis subsp. galleriae (Btsg); Gram-negative bacteria: E. coli (Ec), S. marcescens (Sm), P. aeruginosa (Pa), X. pv. campestris (Xpc), R. dolaanacearum (Rd). Each sample (5 µmol/L, 10 µL) was dropped into the 2.7 mm pore on LB-medium plates and incubated at 37°C for 24 h as shown in Figure S3 for moricin family. The measure unit is millimeter (mm). […] Differences were significant at *P<0.01 among each recombinant AMP family.
B. mori strain Dazao was from the Sericulture & Agri-Food Research Institute, Guangdong Academy of Agricultural Sciences, China. E. coli Rosetta™(DE3) strain was used to express recombinant AMPs. […]
Antimicrobial activity of purified expression products was assayed using the ultrasensitive radial diffusion method and the MICs method seeded with Gram-negative or Gram-positive bacteria. […] The size of the clear area around the bacteria was measured, as shown in Figure S3 for the moricin family. […] Absorbance at 595 nm was measured and was repeated three times, and the MICs determined when the average absorbance was equal to the control sample.

X. pv. campestris = test: Ultrasensitive radial diffusion; assay type: cell-based, Xanthomons pv. campestris; conditions: 5 µmol/L, 10 µL, 37°C 24 h (Fig. 3)
R. dolaanacearum = assay type: cell-based, Ralstonia dolaanacearum

Row | Substance | antimicrobial spectrum among the ten tested bacteria [1] | antimicrobial activity against S. aureus (S. aureus) | antimicrobial activity against X. pv. campestris (X. pv. campestris) | Minimal growth inhibition concentration (MIC), R. dolaanacearum (R. dolaanacearum)
1 | MNFVKILCVVLALMLALSMASAALEPKRKVFKIIEKIGRNVRGGVITAGPAVVVVGQAASVGM [BmcecC, recombinant silkworm cecropin paralog, C subtype, two extra N-terminal residues (Ala-Met)] | no ability to inhibit the growth | – | – | –
2 | MNFAKILSFVFALVLALSMTSAAPEPRWKIFKKIEKMGRNIRDGIVKAGPAIEVLGSAKAIGK [BmcecB6, recombinant silkworm cecropin paralog representing B subtype, two extra N-terminal residues (Ala-Met)] | eight of ten tested bacteria | not inhibited | not inhibited | –
3 | MDFLKYFIVVLVALSLMVCSGQADPKIP--VKSLKKGGKIIAKGFKVLTAAGTAHEVYSHVRNRGNQG [BmmorLA1, recombinant silkworm moricin-like A1, two extra N-terminal residues (Ala-Met)] | – | – | – | 1.25 µM
4 | MNFSRALFYVFAVFLVCASVMAAPEPRWKIFKKIEKVGQNIRDGIIKAGPAVAVVGQAATIAHGK [BmcecE, recombinant silkworm cecropin paralog, E subtype, two extra N-terminal residues (Ala-Met)] | five of ten tested bacteria | – | – | –
5 | MNFVRILSFVFALVLALGAVSAAPEPRWKLFKKIEKVGRNVRDGLIKAGPAIAVIGQAKSLGK [BmcecA1, recombinant silkworm cecropin paralog, A subtype, EK-digested, two extra N-terminal residues (Ala-Met)] | five of ten tested bacteria | – | – | –
6 | MNILKLFLVFMVAMSLVSCSTAAPAKIP--IKAIKTVGKAVGKGLRAINIASTANDVFNFLKPKKRKH [Bmmor, recombinant silkworm moricin, two extra N-terminal residues (Ala-Met)] | nine of ten tested bacteria | – | – | 1.25 µM
